Laboratory results published in publication PMC8016481, “Tachykinin signaling inhibits task-specific behavioral responsiveness in honeybee workers” (eLife, 2021).

System: worker bees (Apis mellifera ligustica)
Test: Proboscis extension response (PER) after TRP2 injection
Assay type: in vivo
Details: for reduction of SRS vs ddH2O, Z: Mann-Whitney U test; for PER ratio: 1 μl of 1 μg/μl into head, 1 hr after injection
Description: To investigate the sucrose responsiveness, bees were assayed using an ascending order of sucrose concentrations: 0.1%, 0.3%, 1%, 3%, 10%, and 30% (weight/weight). A small droplet of each solution was touched to the bees’ antennae for 3 s and the extension of the proboscis was monitored during this time. The interval between each sucrose solution trial was 5 min to exclude sensitization or habituation effects. The total number of PER responses after stimulation with the six different sucrose concentrations was combined into an SRS of a bee ([Pankiw et al., 2001]; [Scheiner et al., 2002]; [Scheiner et al., 2003]). The SRSs of the three behavioral phenotypes in the same species were compared using Kruskal-Wallis tests with Bonferroni correction. Pairwise Mann-Whitney U tests were used for comparing the same phenotype from two honeybee species. The sucrose responsiveness for specific sucrose concentrations was further compared between different groups with independent chi-square tests.
To test pollen stimulation, fresh pollen loads that had been removed from the leg of randomly selected PFs of the test group were used: AML were tested with pollen collected by AML foragers and ACC with pollen collected by ACC foragers. These loads contained a mixture of different pollen, predominated by black locust (R. pseudoacacia). As a control for mechanical stimulation, each bee had both antennae first touched with a piece of filter paper and spontaneous responders were excluded. Subsequently, both antennae of each bee were gently touched with a pollen load and PER responses were recorded. The pollen responsiveness was compared with independent chi-square tests between different groups.
To test responsiveness to larva, 1-day-old larvae from each honeybee species were collected, briefly rinsed in distilled water to remove royal jelly residue and dried on a filter paper. As before, both antennae of bees were touched with a piece of filter paper first and spontaneous responders were excluded, then PERs in response to a larva touching the antennae were recorded. The responsiveness to larvae was compared with independent chi-square tests between different groups. Statistical analyses were conducted using SPSS Statistics 20.0 (IBM, USA).
To confirm the function of TRP on task-specific responsiveness, NBs, PFs, and NFs of AML were injected with TRP2 and tested for their PER response to sucrose solution, pollen, and larva. About 150 bees of each behavioral phenotype were collected in the morning, then harnessed, fed and placed in a dark incubator as described in 'Comparative PER experiments' section. […] Bees injected with ddH2O were used as control. All injected bees were put back to the dark incubator and 1 hr after injection all surviving bees were assayed for their PER to stimulations of sucrose solution, pollen, and larva as described in 'Comparative PER experiments' section. Each experiment was performed with a new set of bees containing about 55 individuals per experimental and control group.
The sucrose responsiveness was further compared between different groups at each specific sucrose concentration with independent chi-square tests. […] All statistical analyses were performed with SPSS Statistics 20.0 (IBM).

Substance: ALMGFQGVRa [TRP2, honeybee tachykinin-related peptide 2, synthesized by SynPeptide]
- effect on larva responsiveness vs ddH2O, χ^2 (NBs, chi-square test): 6.1
- effect on larva responsiveness (NBs, vs ddH2O): significantly affected the responsiveness of NBs
- effect on sucrose responsiveness (NBs, vs ddH2O): did not show significant responsiveness changes to sucrose
- effect on larva responsiveness (NFs and PFs, vs ddH2O): not NFs or PFs
- reduction of SRS vs ddH2O, Z (NFs): 2.3
- effect on sucrose responsiveness (NFs, vs ddH2O): significantly reducing PER responses to all sucrose concentrations except 0.1%
- reduction of SRS vs ddH2O, Z (PFs): 2.2
- decrease of pollen responsiveness vs ddH2O, χ^2 (PFs, chi-square test): 6.7
- effect on pollen responsiveness (PFs, vs ddH2O): significantly decreased responsiveness to pollen loads
- effect on sucrose responsiveness (PFs, vs ddH2O): significantly reducing PER responses to all sucrose concentrations used
- PER ratio (nectar foragers, larva stimulus): 11.54%
- PER ratio (nectar foragers, pollen stimulus): 15.38%
- PER ratio (nectar foragers, sucrose 0.1%): 10.34%
- PER ratio (nectar foragers, sucrose 0.3%): 10.34%
- PER ratio (nectar foragers, sucrose 1.0%): 12.07%
- PER ratio (nectar foragers, sucrose 3.0%): 13.79%
- PER ratio (nectar foragers, sucrose 10.0%): 20.69%
- PER ratio (nectar foragers, sucrose 30.0%): 25.86%
- PER ratio (nurse bees, larva stimulus): 18.18%
- PER ratio (nurse bees, pollen stimulus): 12.73%
- PER ratio (nurse bees, sucrose 0.1%): 15.38%
- PER ratio (nurse bees, sucrose 0.3%): 19.23%
- PER ratio (nurse bees, sucrose 1.0%): 25.00%
- PER ratio (nurse bees, sucrose 3.0%): 30.77%
- PER ratio (nurse bees, sucrose 10.0%): 40.38%
- PER ratio (nurse bees, sucrose 30.0%): 48.08%
- PER ratio (pollen foragers, larva stimulus): 22.64%
- PER ratio (pollen foragers, pollen stimulus): 16.98%
- PER ratio (pollen foragers, sucrose 0.1%): 16.98%
- PER ratio (pollen foragers, sucrose 0.3%): 20.75%
- PER ratio (pollen foragers, sucrose 1.0%): 22.64%
- PER ratio (pollen foragers, sucrose 3.0%): 28.30%
- PER ratio (pollen foragers, sucrose 10.0%): 32.08%
- PER ratio (pollen foragers, sucrose 30.0%): 47.17%
